In US20260092074A1, “Annelated Pyridines as Steroidogenesis Inhibitors, Preparation Method and Use Thereof” (Guangzhou Vinnocent Pharmaceutical Limited, priority 2022, published 2026) one finds IC50 data, which are given here for 11 molecules.

One assay addresses T1, human CYP11B1 (Homo sapiens, UniProt P15538).
T1 construct: expressed in transfected cells
T1 sequence (P15538 25-503): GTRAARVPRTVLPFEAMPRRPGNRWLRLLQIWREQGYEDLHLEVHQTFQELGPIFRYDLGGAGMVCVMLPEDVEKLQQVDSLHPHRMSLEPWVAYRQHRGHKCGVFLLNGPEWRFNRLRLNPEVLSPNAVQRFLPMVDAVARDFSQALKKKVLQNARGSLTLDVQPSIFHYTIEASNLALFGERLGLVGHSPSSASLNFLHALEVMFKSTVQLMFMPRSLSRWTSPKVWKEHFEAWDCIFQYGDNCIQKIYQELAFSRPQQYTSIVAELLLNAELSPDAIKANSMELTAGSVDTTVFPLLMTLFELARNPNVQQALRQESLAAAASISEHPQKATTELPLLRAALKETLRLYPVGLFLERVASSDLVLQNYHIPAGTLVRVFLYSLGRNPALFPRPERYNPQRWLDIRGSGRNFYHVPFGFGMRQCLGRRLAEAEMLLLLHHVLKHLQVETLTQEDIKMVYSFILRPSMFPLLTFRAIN
Briefly: Inhibition of hCYP11B1 in transfected V79 cells. The assay is classed as cell-based. As to conditions: hamster V79 cells expressing human CYP11B1; substrate 11-deoxycortisol 200 nM. An outline of the steps: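 V79 hamster cells stably expressing human CYP11B1 and rat NADPH-P450 reductase were preincubated with compounds for 2 h. 11-Deoxycortisol (200 nM) was then added as substrate for 30 min before ethyl acetate quench. Substrate and product were quantified by LC-MS/MS or HPLC at 260 nm, and IC50 was derived from percent inhibition.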

Another assay addresses T2, human CYP11B2 (Homo sapiens, UniProt P19099).
T2 construct: expressed in transfected cells
T2 sequence (P19099 25-503): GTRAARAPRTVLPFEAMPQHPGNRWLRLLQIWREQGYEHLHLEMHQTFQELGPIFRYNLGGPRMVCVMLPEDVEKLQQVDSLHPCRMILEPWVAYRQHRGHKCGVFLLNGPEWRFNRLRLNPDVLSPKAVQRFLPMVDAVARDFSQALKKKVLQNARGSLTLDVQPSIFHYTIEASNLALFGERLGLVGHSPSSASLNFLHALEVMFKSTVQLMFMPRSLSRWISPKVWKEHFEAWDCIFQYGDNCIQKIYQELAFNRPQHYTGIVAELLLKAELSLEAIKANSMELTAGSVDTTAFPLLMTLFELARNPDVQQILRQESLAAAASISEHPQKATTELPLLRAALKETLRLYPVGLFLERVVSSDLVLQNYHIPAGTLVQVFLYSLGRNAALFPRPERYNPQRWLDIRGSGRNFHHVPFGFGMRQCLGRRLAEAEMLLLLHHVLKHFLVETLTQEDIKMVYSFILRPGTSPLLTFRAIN
Briefly: Inhibition of hCYP11B2 in transfected V79 cells. The assay is classed as cell-based. The conditions noted are these: hamster V79 cells expressing human CYP11B2; substrate 11-deoxycorticosterone 200 nM. An outline of the steps:
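Hamster V79 cells stably co-expressing human CYP11B2 and rat NADPH-P450 reductase were pre-incubated with compounds for 2 hours, then given 200 nM 11-deoxycorticosterone for 30 minutes before ethyl acetate quench. Substrate and product were quantified by LC-MS/MS or HPLC at 260 nm, and IC50 was derived from percent inhibition.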

SMILES strings stand for the structures.

For orientation: IC50 means the point on the concentration scale where inhibition reaches its midpoint. A lower IC50 goes with inhibition by little substance. For `Cc1ccc(S(=O)(=O)N2CC(C(=O)N3CCOc4c(-c5ccc(C#N)cc5)cncc43)C2)cc1` [O65, 4-(4-(1-Tosylazetidine-3-carbonyl)-3,4-dihydro-2H-pyrido[4,3-b][1,4]oxazin-8-yl)benzonitrile], the results for the IC50 on human CYP11B1 and against human CYP11B2 were 521 nM and 2.5 nM, respectively.

As to `COc1cccc(S(=O)(=O)N2CC(C(=O)N3CCOc4c(-c5ccc(C#N)cc5)cncc43)C2)c1` [O66, 4-(4-(1-((3-Methoxyphenyl)sulfonyl)azetidine-3-carbonyl)-3,4-dihydro-2H-pyrido[4,3-b][1, 4]oxazin-8-yl)benzonitrile], the half-maximal inhibitory concentration (IC50) against human CYP11B1 was determined as 495 nM; on human CYP11B2 it was 4.5 nM.

Take `COc1ccc(S(=O)(=O)N2CC(C(=O)N3CCOc4c(-c5ccc(C#N)cc5)cncc43)C2)cc1` [O67, 4-(4-(1-((4-Methoxyphenyl)sulfonyl)azetidine-3-carbonyl)-3,4-dihydro-2H-pyrido[4,3-b][1, 4]oxazin-8-yl)benzonitrile]: the results for the IC50 against human CYP11B1 and on human CYP11B2 were 496 nM and 2.7 nM, respectively.

With `N#Cc1ccc(-c2cncc3c2OCCN3C(=O)C2CN(S(=O)(=O)c3cccc(C#N)c3)C2)cc1` [O68, 3-((3-(8-(4-Cyanophenyl)-3,4-dihydro-2H-pyrido[4,3-b][1,4]oxazine-4-carbonyl)azetidin-1-yl)sulfonyl)benzonitrile], the IC50 at human CYP11B1 worked out at 52 nM; at human CYP11B2, 0.7 nM.

Take `N#Cc1ccc(-c2cncc3c2OCCN3C(=O)C2CN(S(=O)(=O)c3ccc(C#N)cc3)C2)cc1` [O69, 4-((3-(8-(4-Cyanophenyl)-3,4-dihydro-2H-pyrido[4,3-b][1,4]oxazine-4-carbonyl)azetidin-1-yl)sulfonyl)benzonitrile]: the IC50 came to 57 nM against human CYP11B1 and 2.1 nM on human CYP11B2.

As for `Cc1cccc(S(=O)(=O)N2CC(C(=O)N3CCOc4c(-c5ccc(C#N)cc5)cncc43)C2)c1` [O70, 4-(4-(1-(m-Tolylsulfonyl)azetidine-3-carbonyl)-3,4-dihydro-2H-pyrido[4,3-b][1,4]oxazin-8-yl)benzonitrile], the IC50 worked out at 31.6 nM at human CYP11B1 and 1.4 nM on human CYP11B2.

Consider `N#Cc1ccc(-c2cncc3c2OCCN3C(=O)C23CC(Nc4cccc(F)c4)(C2)C3)cc1` [O71, 4-(4-(3-((3-Fluorophenyl)amino)bicyclo[1.1.1]pentane-1-carbonyl)-3,4-dihydro-2H-pyrido[4,3-b][1,4]oxazin-8-yl)benzonitrile], for which the IC50 against human CYP11B1 worked out at 2170 nM; against human CYP11B2, 39 nM.

As to `N#Cc1ccc(-c2cncc3c2OCCN3C(=O)c2ccc(Oc3ccc(F)cc3)s2)cc1` [O72, 4-(4-(5-(4-Fluorophenoxy)thiophene-2-carbonyl)-3,4-dihydro-2H-pyrido[4,3-b][1,4]oxazin-8-yl)benzonitrile], the half-inhibitory concentration (IC50) against human CYP11B1 was 292 nM; against human CYP11B2, 3.6 nM.

As for `N#Cc1ccc(-c2cncc3c2OCCN3C(=O)N2CC3(CN(Cc4cccc(F)c4)C3)C2)cc1` [O73, 4-(4-(6-(3-Fluorobenzyl)-2,6-diazaspiro[3.3]heptane-2-carbonyl)-3,4-dihydro-2H-pyrido[4,3-b][1,4]oxazin-8-yl)benzonitrile], the IC50 against human CYP11B1 was 3470 nM; against human CYP11B2 it was 45 nM.

With `N#Cc1ccc(-c2cncc3c2OCCN3C(=O)C2CN(S(=O)(=O)c3cccc(C#N)c3)C2)cc1` [O74, 3-((3-(8-(4-Cyanophenyl)-3,4-dihydro-2H-pyrido[4,3-b][1,4]oxazine-4-carbonyl)azetidin-1-yl)sulfonyl)benzonitrile], the results for the IC50 against human CYP11B1 and against human CYP11B2 were 99 nM and 1.3 nM, respectively.

Take `N#Cc1ccc(-c2cncc3c2OCCN3C(=O)C2CN(S(=O)(=O)c3ccc(C#N)cc3)C2)cc1` [O75, 4-((3-(8-(4-Cyanophenyl)-3,4-dihydro-2H-pyrido[4,3-b][1,4]oxazine-4-carbonyl)azetidin-1-yl)sulfonyl)benzonitrile]: the figures for the IC50 against human CYP11B1 and at human CYP11B2 were 89 nM and 1.3 nM, respectively.
